The text below walks through data of ChEMBL document CHEMBL1139293 (Bioorg Med Chem Lett, 2009).

Activity calls are given as the source filed them. The rule behind the calls is not given here.

Test [1] has as its target Neuronal acetylcholine receptor subunit alpha-7 (Homo sapiens, UniProt P36544). The test can be described thus: Displacement of [3H]MLA from alpha7 nAChR/5HT3A receptor expressed in HEK293 cells. It counts as cell-based.
Test [2] deals with T1, Neuronal acetylcholine receptor; alpha3/beta4 (Homo sapiens, UniProt P30926+P32297). The test can be described thus: Agonist activity at alpha3beta4 nAChR expressed in HEK293 cells by FLIPR membrane potential assay. It is filed as functional, cell-based.
T1 sequence (P30926 whole entry): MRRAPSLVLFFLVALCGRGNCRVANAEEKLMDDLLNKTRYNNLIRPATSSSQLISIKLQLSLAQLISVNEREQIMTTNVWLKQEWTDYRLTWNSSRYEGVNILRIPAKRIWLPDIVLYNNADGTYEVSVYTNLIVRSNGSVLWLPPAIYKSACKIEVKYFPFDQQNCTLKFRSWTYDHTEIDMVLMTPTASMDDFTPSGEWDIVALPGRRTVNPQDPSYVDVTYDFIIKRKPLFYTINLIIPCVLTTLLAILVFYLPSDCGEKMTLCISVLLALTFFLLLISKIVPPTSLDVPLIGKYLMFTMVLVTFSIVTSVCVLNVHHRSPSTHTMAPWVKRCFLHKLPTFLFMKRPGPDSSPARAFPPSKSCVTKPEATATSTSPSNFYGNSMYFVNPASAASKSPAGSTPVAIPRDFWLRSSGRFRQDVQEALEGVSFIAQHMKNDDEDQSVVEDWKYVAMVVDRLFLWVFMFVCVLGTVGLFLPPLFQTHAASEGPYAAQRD
T1 sequence (P32297 whole entry): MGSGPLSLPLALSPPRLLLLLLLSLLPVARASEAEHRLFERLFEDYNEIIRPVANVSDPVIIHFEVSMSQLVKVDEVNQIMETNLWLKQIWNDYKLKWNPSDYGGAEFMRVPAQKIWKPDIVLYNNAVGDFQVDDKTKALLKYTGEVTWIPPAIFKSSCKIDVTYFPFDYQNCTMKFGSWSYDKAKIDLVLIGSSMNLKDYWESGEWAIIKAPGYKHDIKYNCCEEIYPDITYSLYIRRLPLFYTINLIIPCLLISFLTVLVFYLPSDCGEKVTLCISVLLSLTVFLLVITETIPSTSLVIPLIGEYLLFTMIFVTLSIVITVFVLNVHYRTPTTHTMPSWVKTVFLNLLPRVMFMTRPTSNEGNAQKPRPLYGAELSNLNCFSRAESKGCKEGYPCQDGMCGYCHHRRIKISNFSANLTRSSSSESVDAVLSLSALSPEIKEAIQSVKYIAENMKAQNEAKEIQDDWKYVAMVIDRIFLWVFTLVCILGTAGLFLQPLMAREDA
Test [3] addresses T1, Neuronal acetylcholine receptor; alpha3/beta4. The test can be described thus: Agonist activity at alpha3beta4 nAChR expressed in HEK293 cells at 300 uM by FLIPR membrane potential assay. It counts as functional, cell-based.
For test [4] the target is unchanged. The test can be described thus: Agonist activity at alpha3beta4 nAChR expressed in HEK293 cells at 1 mM by FLIPR membrane potential assay. It is filed as functional, cell-based.

Chain of Neuronal acetylcholine receptor subunit alpha-7 (P36544 23-502 limits assumed): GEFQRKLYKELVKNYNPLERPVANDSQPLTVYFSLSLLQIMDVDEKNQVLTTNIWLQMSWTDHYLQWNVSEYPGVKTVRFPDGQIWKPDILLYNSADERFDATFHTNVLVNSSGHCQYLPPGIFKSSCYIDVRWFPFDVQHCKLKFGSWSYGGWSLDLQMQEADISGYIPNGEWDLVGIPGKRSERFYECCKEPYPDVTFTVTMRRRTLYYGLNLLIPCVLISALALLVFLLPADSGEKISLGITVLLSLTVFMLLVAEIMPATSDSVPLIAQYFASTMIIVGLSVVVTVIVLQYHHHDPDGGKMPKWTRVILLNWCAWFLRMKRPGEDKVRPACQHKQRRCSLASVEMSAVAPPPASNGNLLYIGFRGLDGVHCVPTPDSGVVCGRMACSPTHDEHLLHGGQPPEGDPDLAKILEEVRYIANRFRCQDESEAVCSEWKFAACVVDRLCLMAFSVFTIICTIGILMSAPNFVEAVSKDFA

Compound `CNC(=O)/C=C/CC(C)N(C)C` (stereo not given) yielded an inhibition constant Ki in test [1] above 1000 µM. The EC50 in test [2] (read-out: EC50) was found to be 150 µM.
Consider `CC(C/C=C/C(=O)N(C)C)N(C)C` (stereo not given), for which the Ki in test [1] was above 1000 µM. Further, in test [2] (read-out: EC50), the EC50 was 91 µM.
The matching figures for `CC(CCSC(=O)N(C)C)N(C)C` (stereo not given): above 1000 µM and 430 µM.
As for `CC(CCOC(=O)N(C)c1ccc(C#N)cc1)N(C)C` (stereo not given), in test [1], affinity was put at a Ki of 1000 µM and the pKi was 3. Moreover, in test [2] (read-out: EC50), the EC50 is above 1000 µM. In test [2] (read-out: pEC50 (converted)), the EC50 was 1000 µM. The result in test [3] was Active.
`CC(CCOC(=O)NCCCc1ccccc1)N(C)C` (stereo not given) displayed a Ki in test [1] above 1000 µM. The EC50 is above 1000 µM in test [2] (read-out: EC50) and 1000 µM in test [2] (read-out: pEC50 (converted)). Further, the result in test [3] was Active.
Take `CC(CCOC(=O)N(C)c1ccc(Cl)cc1)N(C)C` (stereo not given): in test [1], the Ki worked out at 1000 µM. Further, the pKi in test [1] came out at 3. Also, the EC50 was 28 µM in test [2] (read-out: EC50) and 31.6 µM in test [2] (read-out: pEC50 (converted)).
Consider `CC(CCOC(=O)N(C)Cc1ccccc1)N(C)C` (stereo not given), for which, in test [1], the Ki turned out to be 1000 µM and the pKi is listed as 3. The EC50 in test [2] (read-out: EC50) was 6.7 µM.
For the compound `CC(CCOC(N)=O)N(C)C` (stereo not given), the Ki in test [1] was above 1000 µM. For the same compound, the EC50 in test [2] (read-out: EC50) was 57 µM.
In test [1], `CC(CCCC(=O)N(C)C)N(C)C` (stereo not given) came in with a Ki above 1000 µM. Also, the EC50 in test [2] (read-out: EC50) came out at 1000 µM. Also, in test [3], the outcome was Active.
In test [1], `CC(CCOC(=O)N(C)c1ccccc1)N(C)C` (stereo not given) returned a Ki of 1000 µM and a pKi of 3. The EC50 in test [2] (read-out: EC50) is 51 µM.
As for `CN(C)C(=O)OCCC(CO)N(C)C` (stereo not given), the outcome in test [4] and in test [3] was Active. In addition, the inhibitory constant (Ki) in test [1] is above 1000 µM. Further, in test [2] (read-out: EC50), the EC50 was above 3000 µM.
Regarding `CC(CCNC(=O)Nc1ccccc1)N(C)C` (stereo not given), in test [4], the result was Active. In addition, the Ki in test [1] is above 1000 µM. Also, the EC50 in test [2] (read-out: EC50) was above 3000 µM.
`CCNC(=O)OCCC(C)N(C)C` (stereo not given) registered a Ki in test [1] above 1000 µM. Further, the EC50 in test [2] (read-out: EC50) was 55 µM.
Consider `CC(CCNC(=O)N(C)C)N(C)C` (stereo not given), for which the outcome in test [4] was Active. Besides, the Ki in test [1] was above 1000 µM. The EC50 in test [2] (read-out: EC50) is above 3000 µM.
In test [1], `CN(C)C(=O)OCCC(c1ccccc1)N(C)C` (stereo not given) came in with a Ki of 1000 µM and a pKi of 3. For the same compound, the EC50 in test [2] (read-out: EC50) was above 1000 µM. In addition, the EC50 in test [2] (read-out: pEC50 (converted)) is 1000 µM. The result in test [3] was Active.
In test [1], `CCCNC(=O)OCCC(C)N(C)C` (stereo not given) displayed a Ki above 1000 µM. Further, the EC50 in test [2] (read-out: EC50) turned out to be 95 µM.
On to `CN(C)C(=O)OCCC(c1ccsc1)N(C)C` (stereo not given), for which, in test [1], affinity was put at a Ki of 1000 µM and the pKi is listed as 3. In addition, the EC50 in test [2] (read-out: EC50) was above 1000 µM. The EC50 in test [2] (read-out: pEC50 (converted)) is 1000 µM. For the same compound, the outcome in test [3] was Active.
Turning to `CC(CCOC(=O)N(C)CCO)N(C)C` (stereo not given), the Ki in test [1] is above 1000 µM. Further, the EC50 in test [2] (read-out: EC50) came to 160 µM.
`CC(CCOC(=O)NCCO)N(C)C` (stereo not given) came in with a Ki in test [1] above 1000 µM. Also, the EC50 in test [2] (read-out: EC50) was determined as 300 µM.
The matching figures for `CC(CCOC(=S)N(C)C)N(C)C` (stereo not given): above 1000 µM and 53 µM.
